Patent US8999990B2, “Inhibitors of the renal outer medullary potassium channel” (Merck Sharp & Dohme Corp., priority 2011, dated 2015)

Each compound was assayed against T1, hROMK (hKir1.1) (Homo sapiens, UniProt P48048) (assay: Thallium Flux Assay). Conditions: HEK293 cells stably expressing hROMK; FLIPR-Tetra, 384 wells; read-out: Thallium Flux IC50.
T1 construct: expressed in transfected cells
T1 sequence (P48048 1-391): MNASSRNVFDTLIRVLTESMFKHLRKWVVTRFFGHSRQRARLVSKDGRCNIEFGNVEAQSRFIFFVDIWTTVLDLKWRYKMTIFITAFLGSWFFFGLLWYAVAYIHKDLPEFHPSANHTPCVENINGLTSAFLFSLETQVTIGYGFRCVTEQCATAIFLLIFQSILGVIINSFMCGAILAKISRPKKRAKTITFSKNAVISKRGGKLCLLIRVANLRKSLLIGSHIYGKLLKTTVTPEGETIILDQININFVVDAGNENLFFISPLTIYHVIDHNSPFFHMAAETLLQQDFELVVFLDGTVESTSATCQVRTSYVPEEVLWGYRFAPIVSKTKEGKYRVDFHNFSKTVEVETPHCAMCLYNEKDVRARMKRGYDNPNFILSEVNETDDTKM
Format: cell-based
Experimental: Several assays may be used to measure functional inhibition of the ROMK channel by compounds of the instant invention. One assay that was used to test the activity of compounds in the Examples is the functional ^86Rb^+ efflux assay described below, that measures the ability of ROMK to permeate ^86Rb^+, in the absence or presence of test compound. Under control conditions, cells loaded with ^86Rb^+ and incubated in Rb^+-free medium display a time-dependent efflux of the isotope, the rate of which depends on number of functional channels. When cells are incubated in the presence of a channel inhibitor, efflux of ^86Rb^+ is prevented in a concentration-dependent manner, and IC50 values of inhibition by compounds can be accurately determined. This assay has been established with cell lines expressing either human, rat or dog ROMK channels, and can operate in 96- or 384-well format. Importantly, the human, rat, and dog ^86Rb^+ efflux assays can be carried out in the presence of up to 100% serum allowing, therefore, an accurate estimation of the effect of protein binding on the inhibitory activity of compounds of interest. Another ROMK functional assay used to test the activity of compounds in the Examples (described below) makes use of the ability of thallium to permeate through open ROMK channels and increase the fluorescence of a dye previously loaded into the cells. Under control conditions, cells loaded with dye and exposed to thallium-containing medium display a time-dependent increase in fluorescence, the rate of which depends on number of functional channels. When cells are incubated in the presence of a channel inhibitor, the increase in fluorescence is attenuated in a concentration-dependent manner, and IC50 values of inhibition by compounds can be accurately determined. This assay has been established with cell lines expressing either human, or rat ROMK channels, and operates in 384-well format.
HEK293 cells stably expressing hROMK (hKir1.1) were grown at 37° C. in a 10% CO2 humidified incubator in complete growth media: Dulbecco's Modified Eagle Medium supplemented with non-essential amino acids, Penicillin/Streptomycin/Glutamine, G418 and FBS. At >80% confluency, aspirate the media from the flask and rinse with 10 mL Calcium/Magnesium-free PBS. Add 5 mL of 1× trypsin (prepared in Ca/Mg Free PBS) to T-225 flask and return flask to 37° C./CO2 incubator for 2-3 minutes. To dislodge the cell, gently bang the side of the flask with your hand. Triturate the cells completely and then transfer the cells to 25 mL complete media. Centrifuge at 1,500 rpm for 6 min followed by resuspension in complete growth media and determine cell concentration. For typical re-seeding, 4E6 cells/T-225 flask will attain >80% confluency in 4 days. Under ideal growth conditions and appropriate tissue culture practices, this cell line is stable for 40-45 passages.
• FluxOR™ Reagent (Component A) • FluxOR™ Assay Buffer (Component B)—10× Concentrate • PowerLoad™ Concentrate (Component C)—100× Concentrate • Probenecid (Component D)—Lyophilized sample is kept at −20° C. Water soluble, 100× after solubilization in 1 mL water. […] Store at 4° C. • Thallium sulfate (Tl2SO4) Concentrate (Component G)—50 mM in water. […]
For `Cc1c([C@@H](O)CN2CCN(C3CCc4cc(C#N)ccc4C3)C(=O)C2)ccc2c1COC2=O` (stereo partly drawn) [Example 47, 6-{4-[(2R)-2-Hydroxy-2-(4-methyl-1-oxo-1,3-dihydro-2-benzofuran-5-yl)ethyl]-2-oxopiperazin-1-yl}-5,6,7,8-tetrahydronaphthalene-2-carbonitrile], the IC50 was 60 nM.
For `Cc1cc2c(cc1C(O)CN1CCN(C3CCc4cc(C#N)ccc4C3)C(=O)C1)COC2=O` (stereo not shown) [Example 49, 6-{4-[2-Hydroxy-2-(6-methyl-1-oxo-1,3-dihydro-2-benzofuran-5-yl)ethyl]-2-oxopiperazin-1-yl}-5,6,7,8-tetrahydronaphthalene-2-carbonitrile], the IC50 was 90 nM.
`Cc1c(CCN2CCN(C[C@H](O)c3ccc4c(c3C)COC4=O)CC2=O)ccc2c1COC2=O` [Example 52, 4-[(2R)-2-hydroxy-2-(4-methyl-1-oxo-1,3-dihydro-2-benzofuran-5-yl)ethyl]-1-[2-(4-methyl-1-oxo-1,3-dihydro-2-benzofuran-5-yl)ethyl]piperazin-2-one] showed an IC50 of 235 nM.
For `Cc1c(C(=O)CN2CCN(C[C@H](O)c3ccc4c(c3C)COC4=O)CC2=O)ccc2c1COC2=O` [Example 48, 4-[(2R)-2-Hydroxy-2-(4-methyl-1-oxo-1,3-dihydro-2-benzofuran-5-yl)ethyl]-1-[2-(4-methyl-1-oxo-1,3-dihydro-2-benzofuran-5-yl)-2-oxoethyl]piperazin-2-one], the IC50 was 80 nM.
`Cc1c(CCN2CCN(CCc3ccc(C#N)cn3)C(=O)C2)ccc2c1COC2=O` [Example 54, 6-(2-{4-[2-(4-Methyl-1-oxo-1,3-dihydro-2-benzofuran-5-yl)ethyl]-2-oxopiperazin-1-yl}ethyl)pyridine-3-carbonitrile] was tested, and the IC50 was 780 nM.
With `Cc1c(C(O)CN2CCN(C[C@@H](O)c3ccc4c(c3C)COC4=O)CC2=O)ccc2c1COC2=O` (stereo partly drawn) [Example 46, 4-[(2S)-2-Hydroxy-2-(4-methyl-1-oxo-1,3-dihydro-2-benzofuran-5-yl)ethyl]-1-[2-hydroxy-2-(4-methyl-1-oxo-1,3-dihydro-2-benzofuran-5-yl)ethyl]piperazin-2-one] the IC50 was 270 nM.
With `COc1ccc(C(=O)CN2CCN(C[C@H](O)c3ccc4c(c3C)COC4=O)CC2=O)c(C)c1C#N` [Example 50, 3-({4-[(2R)-2-Hydroxy-2-(4-methyl-1-oxo-1,3-dihydro-2-benzofuran-5-yl)ethyl]-2-oxopiperazin-1-yl}acetyl)-6-methoxy-2-methylbenzonitrile] the IC50 was 197 nM.
`Cc1c(CCN2CCN(C[C@@H](O)c3ccc4c(c3C)COC4=O)CC2=O)ccc2c1COC2=O` [Example 53, 4-[(2S)-2-hydroxy-2-(4-methyl-1-oxo-1,3-dihydro-2-benzofuran-5-yl)ethyl]-1-[2-(4-methyl-1-oxo-1,3-dihydro-2-benzofuran-5-yl)ethyl]piperazin-2-one] was tested, and the IC50 was 660 nM.
Work on `Cc1c(C(O)CN2CCN(C[C@H](O)c3ccc4c(c3C)COC4=O)CC2=O)ccc2c1COC2=O` (stereo partly drawn) [Example 45, 4-[(2R)-2-Hydroxy-2-(4-methyl-1-oxo-1,3-dihydro-2-benzofuran-5-yl)ethyl]-1-[2-hydroxy-2-(4-methyl-1-oxo-1,3-dihydro-2-benzofuran-5-yl)ethyl]piperazin-2-one] yielded an IC50 of 680 nM.
`Cc1c(C(=O)CN2CCN(C[C@H](O)c3ccc4c(c3C)COC4=O)CC2=O)ccc(F)c1C#N` [Example 51, 6-Fluoro-3-({4-[(2R)-2-hydroxy-2-(4-methyl-1-oxo-1,3-dihydro-2-benzofuran-5-yl)ethyl]-2-oxopiperazin-1-yl}acetyl)-2-methylbenzonitrile] gave an IC50 of 125 nM.
For `Cc1c(C(O)CN2CCN(CCc3ccc(C#N)cn3)C(=O)C2)ccc2c1COC2=O` (single isomer, unassigned) [Example 55, 6-(2-{4-[2-Hydroxy-2-(4-methyl-1-oxo-1,3-dihydro-2-benzofuran-5-yl)ethyl]-2-oxopiperazin-1-yl}ethyl)pyridine-3-carbonitrile], the IC50 was 310 nM.

Same assay, conditions: text of Example 55; separated stereo-isomer; read-out: IC50 in the Thallium Flux Assay
Compound `Cc1c(C(O)CN2CCN(CCc3ccc(C#N)cn3)C(=O)C2)ccc2c1COC2=O` (single isomer, unassigned) [Isomer A, 6-(2-{4-[2-Hydroxy-2-(4-methyl-1-oxo-1,3-dihydro-2-benzofuran-5-yl)ethyl]-2-oxopiperazin-1-yl}ethyl)pyridine-3-carbonitrile] has an IC50 of over 1000 nM.

Same assay, conditions: text of Example 55; separated stereo-isomers
With `Cc1c(C(O)CN2CCN(CCc3ccc(C#N)cn3)C(=O)C2)ccc2c1COC2=O` (single isomer, unassigned) [Example 55, 6-(2-{4-[2-Hydroxy-2-(4-methyl-1-oxo-1,3-dihydro-2-benzofuran-5-yl)ethyl]-2-oxopiperazin-1-yl}ethyl)pyridine-3-carbonitrile] the “potency in the Thallium Flux Assay compared with Isomer A” value was “more potent”.
